Results from the supplement of paper PMC4862054.

What was measured:
Conditions in all cases: incubation time: 72 h
CAL-120 [1] = assay: normalised viability (% of control), CellTiter-Blue; higher = more viable cells (about 100 = DMSO control)
Outline: (§1)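 Breast cancer cell lines were treated for 72 h in 384-well format and measured by CellTiter-Blue fluorescence at 560/590 nm. Results were normalised per plate to vehicle (100) and a positive kill control (0). The entry is normalised viability at a single listed concentration of the series.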

CAL-51 [2] = assay: as above
Outline: as §1

CAL-85-1 [3] = assay: as above
Outline: as §1

HCC1599 [4] = assay: as above
Outline: as §1

Hs578T [5] = assay: as above
Outline: as §1

MDA-MB-436 [6] = assay: as above
Outline: as §1

MDA-MB-468 [7] = assay: as above
Outline: as §1

BT-474 = assay: drug sensitivity score (DSS), CellTox Green (DSS (AUC-based score)); higher = stronger drug effect (viability inhibition or cytotoxicity); extreme values may be limits of the assay
Outline: (§2)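 The area under the fitted dose-response curve was used to calculate the drug sensitivity score. Cells from breast cancer lines were incubated for 72 h in 384-well plates with compound at 5 concentrations spaced 10-fold over a 10,000-fold range specific to each compound. Plates were read for CellTox Green and then CellTiter-Glo, and normalised to 0.1 % DMSO and a positive kill control.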

BT-549 = assay: as above
Outline: as §2

CAL-120 [8] = assay: as above
Outline: as §2

CAL-148 = assay: as above
Outline: as §2

CAL-51 [9] = assay: as above
Outline: as §2

CAL-85-1 [10] = assay: as above
Outline: as §2

DU-4475 = assay: as above
Outline: as §2

HCC1143 = assay: as above
Outline: as §2

HCC1599 [11] = assay: as above
Outline: as §2

HCC1937 = assay: as above
Outline: as §2

HDQ-P1 = assay: as above
Outline: as §2

Hs578T [12] = assay: as above
Outline: as §2

MCF-10A = assay: as above
Outline: as §2

MDA-MB-231 = assay: as above
Outline: as §2

MDA-MB-436 [13] = assay: as above
Outline: as §2

MDA-MB-453 = assay: as above
Outline: as §2

MDA-MB-468 [14] = assay: as above
Outline: as §2

MFM-223 = assay: as above
Outline: as §2

SMILES | normalised viability (CAL-120 [1]; 10 nM) | normalised viability (CAL-120 [1]; 1000 nM) | normalised viability (CAL-120 [1]; 10000 nM) | normalised viability (CAL-51 [2]; 3 nM) | normalised viability (CAL-51 [2]; 30 nM) | normalised viability (CAL-51 [2]; 100 nM) | normalised viability (CAL-85-1 [3]; 3 nM) | normalised viability (CAL-85-1 [3]; 30 nM) | normalised viability (CAL-85-1 [3]; 100 nM) | normalised viability (HCC1599 [4]; 10 nM) | normalised viability (HCC1599 [4]; 1000 nM) | normalised viability (HCC1599 [4]; 10000 nM) | normalised viability (Hs578T [5]; 10 nM) | normalised viability (Hs578T [5]; 1000 nM) | normalised viability (Hs578T [5]; 10000 nM) | normalised viability (MDA-MB-436 [6]; 10 nM) | normalised viability (MDA-MB-436 [6]; 1000 nM) | normalised viability (MDA-MB-436 [6]; 10000 nM) | normalised viability (MDA-MB-468 [7]; 10 nM) | normalised viability (MDA-MB-468 [7]; 1000 nM) | normalised viability (MDA-MB-468 [7]; 10000 nM) | drug sensitivity score (BT-474) | drug sensitivity score (BT-549) | drug sensitivity score (CAL-120 [8]) | drug sensitivity score (CAL-148) | drug sensitivity score (CAL-51 [9]) | drug sensitivity score (CAL-85-1 [10]) | drug sensitivity score (DU-4475) | drug sensitivity score (HCC1143) | drug sensitivity score (HCC1599 [11]) | drug sensitivity score (HCC1937) | drug sensitivity score (HDQ-P1) | drug sensitivity score (Hs578T [12]) | drug sensitivity score (MCF-10A) | drug sensitivity score (MDA-MB-231) | drug sensitivity score (MDA-MB-436 [13]) | drug sensitivity score (MDA-MB-453) | drug sensitivity score (MDA-MB-468 [14]) | drug sensitivity score (MFM-223)
O=NN(CCCl)C(=O)NCCCl [Carmustine] | 98.9% | 83% | 82.5% | 108% | 107% | 99.4% | 95.1% | 88.9% | 96.6% | 99% | 83.5% | 84.2% | 114% | 95.3% | 115% | 91.8% | 105% | 87.5% | 107% | 102% | 103% | 0 | 0 | 0 | 0 | 0 | 0 | 0 | 0 | 0 | 0 | 0 | 0 | 0 | 0 | 0 | 0 | 0 | 0
CC(C)(C)c1cnc(CSc2cnc(NC(=O)C3CCNCC3)s2)o1 [SNS-032] | 84.1% | 12.9% | 11.8% | 113% | 107% | 107% | 88.8% | 78.5% | 70.1% | 113% | 17.4% | 22.4% | 104% | 5.65% | 4% | 105% | 16.2% | 15.1% | 114% | 11.3% | 5.84% | 0 | 7.86 | 0 | 0 | 15.1 | 20.9 | 0 | 0 | 0 | 0 | 11.4 | 17.1 | 16.3 | 30.8 | 0 | 0 | 3.58 | 6.31
Cc1ccc([N+](=O)[O-])cc1S(=O)(=O)N(C)/N=C/c1cnc2ccc(Br)cn12 [PIK-75] |  |  |  |  |  |  |  |  |  |  |  |  |  |  |  |  |  |  |  |  |  | 20.3 | 16.9 | 2.85 | 0 | 36.9 | 25.2 | 7.23 | 9.38 | 7.69 | 2.32 | 11.6 | 25.2 | 32.7 | 40 | 0 | 7.11 | 19.6 | 12.3
